Data on six molecules can be found in US10414728B2 (priority 2014, dated 2019).

Data set [1] concerns the target T1, human NaV 1.6 (Homo sapiens, UniProt Q9UQD0).
T1 construct: expressed in transfected cells; host or cells: CHO
Put plainly: Electrophysiology, IonWorks Barracuda, NaV channel block in CHO cells. The class given is cell-based. As to conditions: Nav1.6, CHO cells, 5 min exposure, ambient temperature. On the procedure:
(§1) Effects on Human NaV 1.1, NaV 1.2, NaV1.3, NaV 1.4, NaV 1.5, NaV 1.6, NaV 1.7 and NaV 1.8/β3 Sodium Channels Expressed in Mammalian Cells
(§2) CHO cells were stably transfected with human ion channel cDNAs. Stable transfectants were selected by expression with the antibiotic-resistance gene(s) incorporated into the expression plasmid(s). Selection pressure was maintained by including selection antibiotics in the culture medium. CHO cells were cultured in Ham's F-12 supplemented with 10% fetal bovine serum, 100 U/mL penicillin G sodium, 100 μg/mL streptomycin sulfate and appropriate selection antibiotics. Before testing, cells in culture dishes were washed twice with Hank's Balanced Salt Solution (HB-PS) and treated with Accutase for approximately 20 minutes. Immediately before use in IonWorks Barracuda™, the cells were washed in HB-PS to remove the Accutase and re-suspended in HB-PS. All experiments were performed at ambient temperature. […] Duration of exposure to each test article concentration was five (5) minutes. Inhibition of NaV channels was measured using a stimulus voltage pattern. The pulse pattern was repeated before (baseline) and for five (5) minutes after compound addition. […]
(§3) where [C] was the concentration of test article, IC50 was the concentration of the test article producing half-maximal inhibition, N was the Hill coefficient, % VC was the percentage of the current run-down (the mean current inhibition at the vehicle control) and % Block was the percentage of ion channel current inhibited at each concentration of a test article. Nonlinear least squares fits were solved with the XLfit add-in for Excel (Microsoft, Redmond, Wash.).

For data set [2], the target named is T2, human NaV 1.2 (Homo sapiens, UniProt Q99250).
T2 construct: expressed in transfected cells; host or cells: CHO
The data set is described as above. As to conditions: Nav1.2, CHO cells, 5 min exposure, ambient temperature. The class given is cell-based. On the procedure:
as §1, §2, §3

Data set [3] deals with T3, human NaV1.3 (Homo sapiens, UniProt Q9NY46).
T3 construct: expressed in transfected cells; host or cells: CHO
The data set is described as above. Type of data set: cell-based. As to conditions: Nav1.3, CHO cells, 5 min exposure, ambient temperature. The method, then: as §1, §2, §3

For data set [4], the target named is T4, human NaV 1.4 (Homo sapiens, UniProt P35499).
T4 construct: expressed in transfected cells; host or cells: CHO
The description is as above. The class given is cell-based. As to conditions: Nav1.4, CHO cells, 5 min exposure, ambient temperature. The method, then:
as §1, §2, §3

The target in data set [5] is T5, human NaV 1.1 (Homo sapiens, UniProt P35498).
T5 construct: expressed in transfected cells; host or cells: CHO
The data set is described as above. As to conditions: Nav1.1, CHO cells, 5 min exposure, ambient temperature. The class given is cell-based. The method, then:
as §1, §2, §3

The target in data set [6] is T6, human NaV 1.7 (Homo sapiens, UniProt Q15858).
T6 construct: expressed in transfected cells; host or cells: CHO
The description is as above. The class given is cell-based. As to conditions: Nav1.7, CHO cells, 5 min exposure, ambient temperature. The method, then: as §1, §2, §3

Data set [7] addresses T7, human NaV 1.8/β3 (Homo sapiens, UniProt Q9Y5Y9).
T7 construct: expressed in transfected cells; host or cells: CHO
The description is as above. Type of data set: cell-based. As to conditions: Nav1.8, CHO cells, 5 min exposure, ambient temperature. The method, then: as §1, §2, §3

Data set [8] deals with NaV 1.1 to NaV 1.8. In words: Electrophysiology, summary over the NaV panel. The class given is cell-based, human. On the procedure:
as §1
CHO cells were stably transfected with human ion channel cDNAs. Stable transfectants were selected by expression with the antibiotic-resistance gene(s) incorporated into the expression plasmid(s). Selection pressure was maintained by including selection antibiotics in the culture medium. CHO cells were cultured in Ham's F-12 supplemented with 10% fetal bovine serum, 100 U/mL penicillin G sodium, 100 μg/mL streptomycin sulfate and appropriate selection antibiotics. Before testing, cells in culture dishes were washed twice with Hank's Balanced Salt Solution (HB-PS) and treated with Accutase for approximately 20 minutes. Immediately before use in IonWorks Barracuda™, the cells were washed in HB-PS to remove the Accutase and re-suspended in HB-PS. All experiments were performed at ambient temperature. […] Duration of exposure to each test article concentration was five (5) minutes. Inhibition of NaV channels was measured using a stimulus voltage pattern. The pulse pattern was repeated before (baseline) and for five (5) minutes after compound addition. Peak current amplitudes were measured for test pulses TP1 (inactivated state inhibition), TP2, TP3 (tonic inhibition) and TP22 (use-dependent inhibition).
as §3

In data set [9] the target is T8, Human recombinant serotonin 5-HT2A receptor (Homo sapiens, UniProt P28223).
T8 construct: expressed in transfected cells; host or cells: CHO-K1
In words: Serotonin-mediated inositol phosphate (IP1) response in CHO-K1 cells. As to conditions: screened at 1 μM, 30 minutes at 37° C.; for inhibition at 1 µM: CHO-K1, read-out: antagonism: inhibition of 0.3 μM serotonin-induced fluorescence response. The class given is cell-based. On the procedure: The 5-HT2 receptor class couples preferentially to Gq/G11 to increase hydrolysis of inositol phosphates and elevate cytosolic [Ca^2+]. Human recombinant serotonin 5-HT2A receptor stably expressed in CHO-K1 cells are used. Test compound and/or vehicle is incubated with the cells (5×10^5/ml) in stimulation buffer of IP1 Tb kit (Cisbio Bioassays) for 30 minutes at 37° C. Test compound-induced increase of fluorescence relative to the 10 μM serotonin response indicate possible serotonin 5-HT2A receptor agonist activity.

The target in data set [10] is human NaV 1.5 (Homo sapiens, UniProt Q14524). Put plainly: Electrophysiology, IonWorks Barracuda, NaV channel block in CHO cells. As to conditions: Nav1.5, CHO cells, 5 min exposure, ambient temperature. On the procedure:
as §1, §2, §3
On the technique in general: The patch-clamp technique gives a direct electrical read-out from membranes.

Data set [11] addresses sodium channel site 2. Put plainly: Sodium channel site 2 radioligand binding ([3H]Batrachotoxinin). As to conditions: rat brain membranes, determined in previous studies.
A short description of data set [12]: Solubility observation. Type of data set: physicochemical. As to conditions: DMSO and acetonitrile/water. The method, then:
A solution of methyl biphenyl-4-yl(1,2,5,6-tetrahydropyridin-2-yl)acetate hydrochloride salt (10.0 g, crude) in acetonitrile (40 mL) was charged with Methyl tert.-butyl ether (80 mL) and water (7.0 mL) at room temperature. The reaction mixture was stirred for 10 min at room temperature. The resulted solids were filtered, washed with Methyl tert.-butyl ether (25 mL) and was dried to afford EXAMPLE 1E (Enantiomeric pair consisting of Methyl (2R)-biphenyl-4-yl[(2S)-1,2,5,6-tetrahydropyridin-2-yl]acetate hydrochloride, EXAMPLE 1C, & Methyl (2S)-biphenyl-4-yl[(2R)-1,2,5,6-tetrahydropyridin-2-yl]acetate hydrochloride, EXAMPLE 1D, 3.75 g) as a light brown solid (96.8% HPLC purity, m/z 308 [M+H]+).

[13] abbreviates: read-out: IC50 TP2 (inactivated state).

Structures can show the parent of a compound that is named as a salt. Where two headings read alike, the source gives them in different places.

T7 sequence (Q9Y5Y9 whole entry): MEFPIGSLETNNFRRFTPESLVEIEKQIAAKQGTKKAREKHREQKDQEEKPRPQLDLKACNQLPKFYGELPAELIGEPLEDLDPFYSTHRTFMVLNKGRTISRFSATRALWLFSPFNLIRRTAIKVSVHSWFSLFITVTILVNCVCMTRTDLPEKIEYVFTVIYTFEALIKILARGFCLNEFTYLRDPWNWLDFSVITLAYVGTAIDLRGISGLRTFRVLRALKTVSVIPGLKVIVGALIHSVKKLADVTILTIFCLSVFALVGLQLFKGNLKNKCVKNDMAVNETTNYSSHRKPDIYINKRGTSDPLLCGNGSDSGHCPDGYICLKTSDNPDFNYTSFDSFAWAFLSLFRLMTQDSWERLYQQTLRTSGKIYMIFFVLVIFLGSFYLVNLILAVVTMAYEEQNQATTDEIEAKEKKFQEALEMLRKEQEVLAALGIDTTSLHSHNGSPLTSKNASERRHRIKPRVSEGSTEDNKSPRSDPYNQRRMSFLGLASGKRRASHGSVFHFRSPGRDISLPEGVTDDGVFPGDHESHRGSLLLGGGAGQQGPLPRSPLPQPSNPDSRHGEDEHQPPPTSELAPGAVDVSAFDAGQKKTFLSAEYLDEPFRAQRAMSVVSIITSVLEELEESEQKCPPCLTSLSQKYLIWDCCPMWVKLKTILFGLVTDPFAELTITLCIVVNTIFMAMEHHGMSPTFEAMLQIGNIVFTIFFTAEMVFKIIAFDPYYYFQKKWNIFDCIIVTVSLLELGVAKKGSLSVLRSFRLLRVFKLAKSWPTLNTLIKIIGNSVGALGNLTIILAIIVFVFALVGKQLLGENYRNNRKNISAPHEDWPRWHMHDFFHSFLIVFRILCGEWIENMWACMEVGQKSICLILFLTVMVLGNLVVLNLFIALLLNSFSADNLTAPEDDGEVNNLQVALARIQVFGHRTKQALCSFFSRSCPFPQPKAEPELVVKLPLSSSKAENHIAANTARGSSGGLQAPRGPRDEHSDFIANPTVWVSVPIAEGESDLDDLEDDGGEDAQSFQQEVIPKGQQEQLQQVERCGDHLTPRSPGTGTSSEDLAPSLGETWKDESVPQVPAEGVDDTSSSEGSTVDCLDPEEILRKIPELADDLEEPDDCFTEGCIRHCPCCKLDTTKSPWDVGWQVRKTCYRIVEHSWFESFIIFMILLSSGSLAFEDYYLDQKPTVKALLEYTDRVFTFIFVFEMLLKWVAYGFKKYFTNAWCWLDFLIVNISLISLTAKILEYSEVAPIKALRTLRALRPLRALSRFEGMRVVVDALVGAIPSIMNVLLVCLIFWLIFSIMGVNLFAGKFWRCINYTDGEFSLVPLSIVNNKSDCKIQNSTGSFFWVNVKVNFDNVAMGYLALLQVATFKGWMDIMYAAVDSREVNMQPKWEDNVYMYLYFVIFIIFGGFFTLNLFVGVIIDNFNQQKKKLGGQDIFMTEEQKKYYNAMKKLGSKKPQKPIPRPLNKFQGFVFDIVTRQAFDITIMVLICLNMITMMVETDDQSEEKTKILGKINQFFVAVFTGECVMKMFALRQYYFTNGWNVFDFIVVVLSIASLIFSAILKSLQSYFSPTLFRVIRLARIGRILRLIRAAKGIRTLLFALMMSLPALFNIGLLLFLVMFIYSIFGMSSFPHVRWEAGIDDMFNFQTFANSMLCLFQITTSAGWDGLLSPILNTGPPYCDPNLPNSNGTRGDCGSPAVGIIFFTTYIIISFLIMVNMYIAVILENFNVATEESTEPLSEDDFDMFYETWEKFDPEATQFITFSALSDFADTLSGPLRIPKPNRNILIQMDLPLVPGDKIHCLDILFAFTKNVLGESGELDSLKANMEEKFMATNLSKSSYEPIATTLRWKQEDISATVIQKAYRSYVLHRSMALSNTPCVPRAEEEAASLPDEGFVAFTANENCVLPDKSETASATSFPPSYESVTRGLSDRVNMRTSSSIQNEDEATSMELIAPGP
T7 sequence (Q9NY72 25-215 partner limits assumed): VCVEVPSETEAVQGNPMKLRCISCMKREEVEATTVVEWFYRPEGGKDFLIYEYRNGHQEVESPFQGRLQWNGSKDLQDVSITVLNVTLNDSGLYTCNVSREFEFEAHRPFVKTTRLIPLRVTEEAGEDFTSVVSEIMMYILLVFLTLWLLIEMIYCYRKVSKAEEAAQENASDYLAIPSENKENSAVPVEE
T3 sequence (Q9NY46 whole entry): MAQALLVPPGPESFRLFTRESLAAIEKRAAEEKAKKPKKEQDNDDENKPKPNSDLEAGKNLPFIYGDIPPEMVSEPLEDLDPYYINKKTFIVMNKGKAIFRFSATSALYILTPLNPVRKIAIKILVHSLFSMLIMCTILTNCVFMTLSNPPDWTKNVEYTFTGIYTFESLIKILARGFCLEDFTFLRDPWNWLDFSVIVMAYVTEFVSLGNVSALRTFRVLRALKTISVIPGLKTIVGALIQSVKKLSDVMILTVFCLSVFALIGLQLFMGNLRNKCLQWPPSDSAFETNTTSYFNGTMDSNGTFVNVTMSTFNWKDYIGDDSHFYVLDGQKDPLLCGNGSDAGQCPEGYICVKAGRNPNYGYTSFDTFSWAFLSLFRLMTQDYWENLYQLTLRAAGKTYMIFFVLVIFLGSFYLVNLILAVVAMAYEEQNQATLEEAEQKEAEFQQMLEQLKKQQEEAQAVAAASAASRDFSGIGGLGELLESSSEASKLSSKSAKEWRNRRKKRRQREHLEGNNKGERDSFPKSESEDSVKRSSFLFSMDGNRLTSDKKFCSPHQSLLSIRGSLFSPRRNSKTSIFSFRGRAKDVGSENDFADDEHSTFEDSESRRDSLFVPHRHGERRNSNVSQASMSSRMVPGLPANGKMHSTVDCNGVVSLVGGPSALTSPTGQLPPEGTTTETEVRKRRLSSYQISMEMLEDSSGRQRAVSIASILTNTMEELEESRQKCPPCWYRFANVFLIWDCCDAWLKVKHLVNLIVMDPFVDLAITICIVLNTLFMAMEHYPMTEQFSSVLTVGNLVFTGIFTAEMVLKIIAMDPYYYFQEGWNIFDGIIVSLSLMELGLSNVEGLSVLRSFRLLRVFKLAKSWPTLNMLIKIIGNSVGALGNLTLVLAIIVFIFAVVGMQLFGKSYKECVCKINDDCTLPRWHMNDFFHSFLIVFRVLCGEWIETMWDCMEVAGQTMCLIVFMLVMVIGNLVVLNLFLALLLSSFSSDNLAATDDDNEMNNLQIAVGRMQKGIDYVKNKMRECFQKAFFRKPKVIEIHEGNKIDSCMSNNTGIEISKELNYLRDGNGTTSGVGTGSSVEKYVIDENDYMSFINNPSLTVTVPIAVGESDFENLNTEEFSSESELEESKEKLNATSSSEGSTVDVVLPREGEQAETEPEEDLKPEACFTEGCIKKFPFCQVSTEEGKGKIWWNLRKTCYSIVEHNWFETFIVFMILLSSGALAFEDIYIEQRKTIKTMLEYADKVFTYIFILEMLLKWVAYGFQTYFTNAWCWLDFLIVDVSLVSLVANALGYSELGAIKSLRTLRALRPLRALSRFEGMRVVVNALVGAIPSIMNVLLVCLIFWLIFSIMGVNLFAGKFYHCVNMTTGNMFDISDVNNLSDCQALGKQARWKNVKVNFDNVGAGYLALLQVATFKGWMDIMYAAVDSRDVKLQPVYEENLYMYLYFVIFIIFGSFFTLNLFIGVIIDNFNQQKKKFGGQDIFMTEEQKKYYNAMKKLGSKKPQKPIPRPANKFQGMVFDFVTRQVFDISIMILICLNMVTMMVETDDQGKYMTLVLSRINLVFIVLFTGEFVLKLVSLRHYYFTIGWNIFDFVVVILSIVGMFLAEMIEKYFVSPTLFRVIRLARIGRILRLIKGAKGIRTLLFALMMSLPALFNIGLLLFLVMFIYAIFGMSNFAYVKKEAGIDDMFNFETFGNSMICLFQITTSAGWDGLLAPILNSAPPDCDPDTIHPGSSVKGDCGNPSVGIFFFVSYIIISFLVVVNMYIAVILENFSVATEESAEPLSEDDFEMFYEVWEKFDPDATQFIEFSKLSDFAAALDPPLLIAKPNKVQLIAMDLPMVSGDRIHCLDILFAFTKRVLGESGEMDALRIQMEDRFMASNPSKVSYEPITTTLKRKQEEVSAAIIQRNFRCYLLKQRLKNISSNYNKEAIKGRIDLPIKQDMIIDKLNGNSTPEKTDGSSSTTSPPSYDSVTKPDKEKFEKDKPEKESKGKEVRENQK
T8 sequence (P28223 whole entry): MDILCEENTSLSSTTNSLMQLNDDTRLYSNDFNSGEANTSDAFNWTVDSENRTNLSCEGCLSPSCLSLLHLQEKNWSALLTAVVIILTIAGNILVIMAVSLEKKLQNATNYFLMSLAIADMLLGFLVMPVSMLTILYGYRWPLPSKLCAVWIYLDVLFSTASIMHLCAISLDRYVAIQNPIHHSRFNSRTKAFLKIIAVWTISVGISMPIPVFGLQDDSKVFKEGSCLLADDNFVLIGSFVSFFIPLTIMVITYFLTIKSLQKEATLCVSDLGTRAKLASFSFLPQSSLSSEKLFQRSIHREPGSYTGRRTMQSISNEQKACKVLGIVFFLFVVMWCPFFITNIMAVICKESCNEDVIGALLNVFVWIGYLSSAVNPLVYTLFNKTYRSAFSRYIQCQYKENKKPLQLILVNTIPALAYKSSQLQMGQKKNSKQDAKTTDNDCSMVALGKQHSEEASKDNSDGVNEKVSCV

A word on the IC50: it is the concentration needed to halve the response being measured. In general, inhibition refers to the share of the control response that was lost under treatment. As for `COC(=O)[C@@H](c1ccc(-c2ccccc2)cc1)[C@H]1C=CCCN1` [EXAMPLE 1D, Methyl (2S)-biphenyl-4-yl[(2R)-1,2,5,6-tetrahydropyridin-2-yl]acetate hydrochloride], the IC50 in data set [1] (IC50 TP1 (tonic)) was over 30 µM; in data set [1] (IC50 TP2 (inactivated state)) it was 2 µM; in data set [2] (IC50 TP1 (tonic)), over 30 µM; in data set [2] (IC50 TP2 (inactivated state)), 2.1 µM; in data set [3] (IC50 TP1 (tonic)), over 30 µM; in data set [3] (IC50 TP2 (inactivated state)), 2 µM. Further, the IC50 is over 30 µM in data set [4] (IC50 TP1 (tonic)); 1.3 µM in [4] (IC50 TP2 (inactivated state)); over 30 µM in [5] (IC50 TP1 (tonic)); 2.2 µM in data set [5] (IC50 TP2 (inactivated state)); over 30 µM in [6] (IC50 TP1 (tonic)); 2 µM in data set [6] (IC50 TP2 (inactivated state)). Moreover, the half-maximal inhibitory concentration (IC50) was over 30 µM in data set [7] (IC50 TP1 (tonic)), 1.8 µM in [7] (IC50 TP2 (inactivated state)), over 30 µM in data set [10] (IC50 TP1 (tonic)) and 2 µM in data set [10] (IC50 TP2 (inactivated state)). Besides, the “inhibition to NaV 1.1 to NaV 1.8” value in data set [8] is recorded as “showed inhibition”. The inhibition at 1 µM in data set [9] stood at 37%. Also, the “agonist activity (increase of fluorescence relative to the 10 μM serotonin response)” value in data set [9] is “no agonist activity”.
What is called Kd is the free concentration of one partner at which half of the binding sites on the other are occupied at equilibrium, for simple one-to-one binding. A lower Kd goes with a tighter complex. In turn, [3H]Batrachotoxinin yielded an equilibrium dissociation constant (Kd) in data set [11] of 0.052 µM.
Consider `COC(=O)[C@H](c1ccc(-c2ccccc2)cc1)[C@@H]1C=CCCN1` (racemic) [EXAMPLE 1E], for which the IC50 in data set [1] (IC50 TP1 (tonic)) is over 30 µM; in [1] (IC50 TP2 (inactivated state)), 1.2 µM; in data set [2] (IC50 TP1 (tonic)), over 30 µM; in data set [2] (IC50 TP2 (inactivated state)) it was 1.5 µM; in [3] (IC50 TP1 (tonic)) it was over 30 µM; in [3] (IC50 TP2 (inactivated state)), 1.3 µM. Besides, the IC50 in data set [4] (IC50 TP1 (tonic)) was over 30 µM; in data set [4] (IC50 TP2 (inactivated state)), 1.2 µM; in [5] (IC50 TP1 (tonic)), over 30 µM; in [5] (IC50 TP2 (inactivated state)), 1.5 µM; in data set [6] (IC50 TP1 (tonic)), over 30 µM; in data set [6] (IC50 TP2 (inactivated state)) it was 1.3 µM. Moreover, the 50% inhibitory concentration (IC50) is over 30 µM in data set [7] (IC50 TP1 (tonic)), 1.1 µM in [7] (IC50 TP2 (inactivated state)), over 30 µM in data set [10] (IC50 TP1 (tonic)) and 1.2 µM in data set [10] (IC50 TP2 (inactivated state)). In addition, the “inhibition to NaV 1.1 to NaV 1.8” value in data set [8] was “showed inhibition”. Also, in data set [12], the solubility entry is “soluble in DMSO and acetonitrile/water”.
Take `COC(=O)C(c1ccc(-c2ccccc2)cc1)C1C=CCCN1.Cl` (stereo not shown) [EXAMPLE 1, methyl biphenyl-4-yl(1,2,5,6-tetrahydropyridin-2-yl)acetate hydrochloride salt]: in data set [9], the “agonist activity (increase of fluorescence relative to the 10 μM serotonin response)” value is on record as “no agonist activity”.
For `COC(=O)[C@H](c1ccc(-c2ccccc2)cc1)[C@@H]1C=CCCN1.Cl` [EXAMPLE 1C, Methyl (2R)-biphenyl-4-yl[(2S)-1,2,5,6-tetrahydropyridin-2-yl]acetate hydrochloride], the half-maximal inhibitory concentration (IC50) is over 30 µM in [1] (IC50 TP1 (tonic)); 2.2 µM in data set [1] (IC50 TP2 (inactivated state)); over 30 µM in [2] (IC50 TP1 (tonic)); 3.1 µM in data set [2] (IC50 TP2 (inactivated state)); over 30 µM in data set [3] (IC50 TP1 (tonic)); 2.2 µM in data set [3] (IC50 TP2 (inactivated state)). Besides, the IC50 is over 30 µM in data set [4] (IC50 TP1 (tonic)); 1.5 µM in data set [4] (IC50 TP2 (inactivated state)); over 30 µM in [5] (IC50 TP1 (tonic)); 2.1 µM in data set [5] (IC50 TP2 (inactivated state)); over 30 µM in data set [6] (IC50 TP1 (tonic)); 2.5 µM in data set [6] (IC50 TP2 (inactivated state)). Further, the IC50 is over 30 µM in data set [7] (IC50 TP1 (tonic)), 1.9 µM in data set [7] (IC50 TP2 (inactivated state)), over 30 µM in data set [10] (IC50 TP1 (tonic)) and 1.5 µM in data set [10] (IC50 TP2 (inactivated state)). Further, in data set [8], the “inhibition to NaV 1.1 to NaV 1.8” value is recorded as “showed inhibition”. Further, the inhibition at 1 µM in [9] was determined as 30%. Moreover, in data set [9], the “agonist activity (increase of fluorescence relative to the 10 μM serotonin response)” value is “no agonist activity”.
As to `CCN(CC)CC(=O)Nc1c(C)cccc1C` [Lidocaine, reference compound], the IC50 in data set [1] (read-out: IC50 TP1 (tonic)) is 423 µM; in [1] (setting [13]), 188 µM; in data set [3] (read-out: IC50 TP1 (tonic)), 555 µM; in data set [3] (setting [13]), 165 µM; in [4] (read-out: IC50 TP1 (tonic)), 389 µM; in [4] (setting [13]), 162 µM. Further, the IC50 stood at 543 µM in data set [5] (read-out: IC50 TP1 (tonic)); 465 µM in data set [5] (setting [13]); 382 µM in [6] (read-out: IC50 TP1 (tonic)); 154 µM in data set [6] (setting [13]); 280 µM in data set [7] (read-out: IC50 TP1 (tonic)); 51.4 µM in data set [7] (setting [13]).
